How the values were obtained:
Format in all cases: in vivo
Ctenocephalides felis [1] = assay: Example 6: efficacy of Mivorilaner in medicated feed in cats against fleas
Text: FIG. 1. A graph of the arithmetic mean efficacy for treatment Group 2 (vertical hash) and Group 3 (horizontal hash). Percent efficacy=[AM fleas CONTROL−AM fleas TREATED]/AM fleas CONTROL Efficacy measured at 2, 9, 16, 30, and 37 days after Initial Treatment.
Methods: A pool of cats are to be preliminarily infested with ˜100 unfed adult C. felis fleas in order to produce cats that can suitably sustain a reliable infestation rate, defined as approximately 50% retention of live fleas at the end of a 48-hour period. The cats with the highest live flea counts are to be randomly assigned to a single control group (Group 1) and 2 medicated feed treatment groups (Groups 2 and 3) with 4 cats per group. The cats in groups 2 and 3 will receive Mivorilaner.
(§1) The cats are to be housed individually during the study period and are to have ad libitum access to water.
Each cat in a treatment group (Groups 2 and 3) is to receive a medicated daily feed from study days 0-29 according to TABLE 4.
The cats are to be fasted overnight prior to each daily treatment. The daily dose of Mivorilaner is to be mixed into a small portion (approximately 25% of the cat's daily dietary needs) of wet canned cat food. Approximately 4 hours after the medicated feed has been initially offered, the remaining medicated feed, if any, will be mixed with the 75% unmedicated daily feed for each cat. […]

[2] = Example 1: average plasma concentration of isoxazoline in cats, daily oral liquid dosing; conditions: 1.125 mg/kg daily oral
Experimental: (§2) Each cat in the isoxazoline treatment group is to receive by mouth a liquid formulation of isoxazoline. The dosage of 1.125 mg/kg of isoxazoline is to be administered to the cats on each of days 0-29.
Using the same study method as described above, blood is to be drawn at 72, 168, 336, 504, 720 and 888 hours after the initial dose of isoxazoline is administered. The average concentration of isoxazoline in the blood can then be determined.

[3] = Example 5: plasma levels of isoxazoline in cats given two medicated feed formulations; conditions: 1 mg/kg daily, days 0-14
Experimental: Methods: A pool of cats are to be randomly assigned to a single control group and 2 treatment groups with 6 cats per group.
as §1
Each cat in a treatment group (test groups 2 and 3) is to receive one of two medicated daily feeds from study days 0-14. The medicated daily feed is to be offered to the cats for 1 hour on each of days 0-14 according to TABLE 3.
Blood is to be drawn at day 0 (day of the first administration of medicated feed) and days 2, 4, 7, 10, 14, 21 and 30 after the initial dose of isoxazoline is administered. The average concentration of isoxazoline in the blood for each of the medicated feed formulations (treatment groups 2 and 3) can then be determined.

Ctenocephalides felis [4] = assay: Example 1: efficacy of isoxazoline liquid formulation given by mouth to cats against fleas; conditions: 1.125 mg/kg by mouth daily on days 0-29, liquid formulation, fed
Text: Methods: A pool of 14 cats are to be preliminarily infested with ˜100 unfed adult C. felis in order to identify cats that can suitably sustain a reliable infestation rate, defined as approximately 50% fleas being live at the end of a 48-hour period. The 12 cats with the highest live flea counts are to be selected for inclusion in the study. The cats are to be randomized and divided into a control group and a treatment group with 6 cats per group.
The cats are to be housed individually during the study period and are to be fed a commercial dry cat food ration with ad libitum access to water.
as §2
Cats in the control group are not to receive isoxazoline or any other flea control treatment. Each cat in the treatment group is to be offered its daily ration (dry food) and the individual doses of liquid formulation are to be administered after the individual cat has eaten at least 25% of its total daily ration. After receiving the dose of isoxazoline, the cats are to be allowed to continue eating. This mimics incorporating the isoxazoline in feed. Each cat in the treatment group and the control group is to be experimentally infested with 100 unfed adult fleas on test days −1, 5, 12, 20 and 35. […]

In the case of `O=C(CNC(=O)c1sc(C2=NO[C@@](c3cc(Cl)c(F)c(Cl)c3)(C(F)(F)F)C2)c2c1CCC2)NCC(F)F` [mivorilaner, 3-[(5S)-5-(3,5-dichloro-4-fluorophenyl)-5-(trifluoromethyl)-4,5-dihydroisoxazol-3-yl]-N-[2-[(2,2-difluoroethyl)amino]-2-oxoethyl]-5,6-dihydro-4H-cyclopenta[c]thiophene-1-carboxamide], the “Percent efficacy (reduction in live and moribund flea counts)” value (Ctenocephalides felis [1]; Group 2, 0.75 mg/kg daily in wet canned cat food days 0-29, by day 9) is reported as 100%, the “Percent efficacy (reduction in live and moribund flea counts)” value (Ctenocephalides felis [1]; Group 3, 1.5 mg/kg daily in wet canned cat food days 0-29, by day 9) is reported as 100% and the average plasma concentration ([2]; at 72 hours) is reported as “about 1011 ng/mL”. The average plasma concentration ([2]; at 504 hours) was “about 4088 ng/mL”, the average plasma concentration ([2]; at 888 hours, approximately 8 days after the final dose) was “about 3025 ng/mL” and the plasma concentrations [3] was “consistent between treatment groups 2 and 3”. The “reduction in live flea counts over the control group” value (Ctenocephalides felis [4]) was “at least 95%”.

From patent publication US20240156789A1, “ORAL FELINE FEED AND METHODS FOR CONTROLLING FLEA INFESTATIONS IN A FELINE” (priority 2021, published 2024)
